The text below walks through data of patent publication US20190298740A1, “METHODS AND COMPOSITIONS FOR TREATING HALLUCINATIONS AND CONDITIONS RELATED TO THE SAME” (Enterin, Inc., priority 2018, published 2019).

Entries after “also recorded” stand apart in the source; their conditions may differ.

In data set [1] the test system is PD related hallucinations. The note with it: cited from earlier work.
For data set [2] the following is noted: cited from earlier work.
The conditions of data set [3]: cited from earlier work. The source holds these as a separate data set.
Data set [4] deals with Parkinson's disease patient with hallucinations. Nature of the data set: Case reports: oral squalamine in PD patients with hallucinations (Examples 1-3). Type of data set: in vivo, human. The source says:
MV1, a person with a 13-year history of PD had been suffering from daily visual hallucinations for 5 years. MV1 reported that the hallucinations occurred at night. MV1 was aware that the apparitions were unreal, and they were fully awake when they occurred. The hallucinations consisted mostly of faceless dead relatives who came into their bedroom, sat on their bed, or in a chair, or walked around. […] Sometimes MV1 would shout at the hallucinations to go away and the hallucinations would disappear. MV1 also had tactile hallucinations, causing MV1 to feel that insects such as cockroaches were climbing up their legs. They would bend down and attempt to brush them off their feet and legs. MV1 also had tactile hallucinations of the hands “as if someone was picking at them”. They were not treated with any antipsychotic medication and they didn't take any sleeping pills or sedatives. They also suffered from REM-behavior disorder (RBD), and had thrashing of arms and legs during their sleep. Their spouse had moved out of the bed several years prior because of the thrashing, screaming and hallucinations.
The patient was started on 75 mg squalamine daily. […] They were also sleeping better. […] Subsequently, the dose was increased to 175 mg, and maintained at 175 mg per day for another week or two, before discontinued. […]
NY1, a person with a 5-year history of PD suffered from daily hallucinations. The hallucinations had been occurring for a number of years. The hallucinations occurred any time of day or night.
NY1 was started on squalamine 75 mg daily and then escalated to 100 mg daily. […] They were maintained at 125 mg per day for about a week, after which medication was discontinued. NY1 remained hallucination-free for 9 days following discontinuation.
The patient, a person with a 10-year history of Parkinson's Disease suffered from frequent hallucinations. The hallucinations would occur at night and consist of people roaming around in their bedroom, such as a young person sitting on their bed, or a priest standing by the bed. They were fully awake and aware that the visions were unreal. They also suffered from fragmented sleep and REM-behavior disorder (RBD).
BC was started on a squalamine dose of 75 mg daily, which was increased to a daily dose of 175 mg that was maintained for a 3-month period. […] They described the hallucinations as cooks with white top hats and cleaners in blue uniforms. […] Upon discontinuing the medication, the hallucinations returned. This cycle of stopping and resuming squalamine treatment was repeated three times, and the hallucinations abated every time the squalamine treatment was resumed and hallucinations came back every time squalamine treatment was stopped. A portion of their sleep diary is shown below in Table 2.

Data set [5] is described as follows: Aminosterol-induced response after a single oral dose. Type of data set: in vivo. The note with it: single 200 mg oral dose.
For data set [6] the following is noted: cited from earlier work. This is another data set of the same source.

On to `CC(C)COc1ccc(CNC(=O)N(Cc2ccc(F)cc2)C2CCN(C)CC2)cc1` [Pimavanserin], for which the “Improvement over placebo on the SCAD-PD questionnaire” value in data set [1] (PD related hallucinations) is 3 point. In addition, the “Increased mortality (black box warning)” value in data set [1] (label) was 11%.

Turning to `CC(C)[C@@H](CC[C@@H](C)[C@H]1CC[C@H]2[C@@H]3[C@H](O)C[C@H]4C[C@@H](NCCCNCCCCN)CC[C@]4(C)[C@H]3CC[C@]12C)OS(=O)(=O)O.C[C@H](O)C(=O)O.C[C@H](O)C(=O)O` [squalamine dilactate salt], in data set [2], the Solubility in water result is “highly water soluble”. In addition, in data set [3] (preliminary studies), the Oral bioavailability result is on record as “poorly bioavailable orally”. Moreover, in data set [3] (rodents, subcutaneous and intraperitoneal routes), the Absorption result is “well absorbed”.

`CC(C)[C@@H](CC[C@@H](C)[C@H]1CC[C@H]2[C@@H]3[C@H](O)C[C@H]4C[C@@H](NCCCNCCCCN)CC[C@]4(C)[C@H]3CC[C@]12C)OS(=O)(=O)O` [squalamine]: the “Time hallucination-free following discontinuation, patient NY1” value in data set [4] (after 125 mg per day for about a week) was 9 days. Moreover, the “Time hallucination-free after discontinuation, patient MV1” value in data set [4] (after 175 mg per day) was 30 days. The “Hallucinations, patient” value in data set [4] (after stopping squalamine administration) is “vivid hallucinations returned; also recorded: Apparitions back with a vengeance; also recorded: Apparitions, cooks in tall hats; also recorded: Apparitions, cleaning crew in blue uniforms; also recorded: Apparitions, severely disturbed sleep”; in data set [4] (oral, 175 mg daily for 3 months) it was “no hallucinations”; in data set [4] (squalamine restarted at 125 mg daily), “hallucinations vanished; also recorded: No hallucinations since last entry; also recorded: No hallucinations since restarting”. In addition, the “Hallucination frequency, patient NY1” value in data set [4] (oral, 100 mg daily, daily hallucinations before) is recorded as “no more than once or twice a week”. The “Sleep and RBD, patient MV1” value in data set [4] (oral, 125 mg daily) is “continued to improve”. In data set [4] (oral, 125 mg per day), the “Hallucinations, patient NY1” value is “disappeared altogether”. The “Hallucinations, patient MV1” value in data set [4] (oral, daily dose increased to 125 mg) is “disappeared completely”; in data set [4] (oral, dose increased from 75 mg daily), “hallucinating less frequently”. In data set [5], the “Duration of the aminosterol-induced response” value is on record as “about 4 days”.

On to `CC(C)[C@@H](CC[C@@H](C)[C@H]1CC[C@H]2[C@@H]3[C@H](O)C[C@H]4C[C@@H](NCCCNCCCCNCCCN)CC[C@]4(C)[C@H]3CC[C@]12C)OS(=O)(=O)O` [Aminosterol 1436], for which the Weight loss result in data set [6] (administered parenterally to dogs and rodents) is given as “capable of inducing weight loss”. In addition, the Anorectic activity result in data set [6] (delivered orally) is “no anorectic activity”. Also, the “Duration of the aminosterol-induced response” value in data set [5] is recorded as “about 4 days”.
